In patent US11691962B2 (eXIthera Pharmaceuticals, Inc., priority 2018, dated 2023):

Key:
Format in all cases: biochemical
[1] = test system: Trypsin; test: Dose response assay for protease inhibitors: trypsin; conditions: selectivity, trypsin over Factor XIa
Procedure: (§1) • Assay buffer: 20 mM Hepes, pH 7.4; 150 mM NaCl; 0.02% Tween 20 • Compounds: 10 mM stocks in DMSO • Substrate: 20 mM Glp-Pro-Arg-AMC, 25 mg/2.3 mL H2O (store at +4° C.) [Factor XIa, thrombin, and trypsin] • 20 mM Pro-Phe-Arg-AMC (Bachem I-1295), 25 mg/2.2 mL H2O • or Boc-Leu-Gly-Arg-AMC (Bachem I-1105), 25 mg/2.07 mL H2O • (store at +4° C.) [Factor Xa] • Enzyme: Factor XIa; 0.25 μM in 50% glycerol (20 μg/mL) • Trypsin; 0.2 μM in 50% glycerol (4.8 μg/mL) • Thrombin; 0.2 μM in 50% glycerol (7.34 μg/mL) • Factor Xa; 0.2 μM in 50% glycerol (9.2 μg/mL) • These stocks are aliquoted (˜100 μL/aliquot) and stored at −20° C. Methods: • 1. Dilute the substrate to 100 μM in assay buffer (30 μL/6 mL). The enzyme is diluted to 0.5 nM just prior to use (12 μL/6 mL for Factor XIa; 15 μL/6 mL for all of the rest.) • 2. Pipette 50 μL of substrate into each well of the 96 well (12×8) microtiter plate. (Column 1 is used as the 100% activity control and receives no compound, and Column 12 is the blank and receives no enzyme.) Add an additional 46 μL to column 2. • 3. Pipette 4 μL of each compound into the appropriate well in column 2 of the plate (unknowns assayed in triplicate, standard assayed in duplicate). The final compound concentration will be […] of the stock. • 4. Serially two-fold dilute the compound by mixing the sample in column 2, removing 50 μL to the next well (column 3), mix and remove to column 4, etc. until column 11. After mixing column 11, remove 50 μL and discard. • 5. Pipette 50 μL of buffer into column 12. Initiate the reaction by adding 50 μL of enzyme solution to each well of columns 1-11 as rapidly as possible. • 6. Read the plate in a spectrophotometer (SpectraMax) at 30° C., wherein each well is measured every 60 s for 30 min. For Factor Xa assays, each well is measured every 1 min for a total of 60 min. • 7. For Factor XIa assays, the compounds are assayed, in duplicate, at 3 different starting concentrations, 20, 2, and 0.2 μM; 1:10, 1:100, and 1:1000 dilution of 10 mM stock or at 2, 0.2, and 0.02 μM; 1:100, 1:1000, and 1:10,000 dilution of 10 mM stock. Data for each concentration are combined for graphing and data fitting. • 8. Data can be used both for estimation of IC50 and for estimation of Kon.

[2] = molecular target: Factor XIa (Homo sapiens (Human), UniProt P03951); test: Factor XIa enzyme inhibition assay (dose response, fluorogenic AMC substrate); conditions: read-out: hFXIa IC50
Chain of Factor XIa (P03951 388-625): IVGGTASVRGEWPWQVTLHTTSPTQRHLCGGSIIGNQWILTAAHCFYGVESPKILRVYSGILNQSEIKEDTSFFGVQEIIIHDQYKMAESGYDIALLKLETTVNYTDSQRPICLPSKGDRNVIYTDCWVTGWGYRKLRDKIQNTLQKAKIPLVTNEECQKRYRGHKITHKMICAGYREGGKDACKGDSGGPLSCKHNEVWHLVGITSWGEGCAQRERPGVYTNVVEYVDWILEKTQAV
Chain of Factor XIa (P03951 19-387 partner): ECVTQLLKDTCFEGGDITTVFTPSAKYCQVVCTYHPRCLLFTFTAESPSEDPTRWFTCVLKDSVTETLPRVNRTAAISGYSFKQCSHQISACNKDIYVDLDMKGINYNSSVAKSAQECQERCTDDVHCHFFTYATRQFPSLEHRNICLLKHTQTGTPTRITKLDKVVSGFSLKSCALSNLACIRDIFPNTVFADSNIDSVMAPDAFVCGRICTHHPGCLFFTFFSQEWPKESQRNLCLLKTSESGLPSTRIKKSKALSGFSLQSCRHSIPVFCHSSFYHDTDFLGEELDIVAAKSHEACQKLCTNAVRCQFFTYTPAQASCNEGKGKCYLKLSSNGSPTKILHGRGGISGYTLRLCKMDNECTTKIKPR
In short: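 Human FXIa at 0.25 nM final with 50 μM final PyroGlu-Pro-Arg-AMC in 20 mM Hepes pH 7.4, 150 mM NaCl, 0.02% Tween 20. Two-fold serial compound dilutions; fluorescence read every minute for 30 min at 30° C. IC50 from a four-parameter Hill fit.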

[3] = molecular target: Thrombin (Homo sapiens (Human), UniProt P00734); test: Dose response assay for protease inhibitors: thrombin; conditions: selectivity, thrombin over Factor XIa
Procedure: as §1

[4] = molecular target: Factor Xa (Homo sapiens (Human), UniProt P00742); test: Dose response assay for protease inhibitors: Factor Xa; conditions: selectivity, Factor Xa over Factor XIa
Chain of Factor Xa (P00742 235-488): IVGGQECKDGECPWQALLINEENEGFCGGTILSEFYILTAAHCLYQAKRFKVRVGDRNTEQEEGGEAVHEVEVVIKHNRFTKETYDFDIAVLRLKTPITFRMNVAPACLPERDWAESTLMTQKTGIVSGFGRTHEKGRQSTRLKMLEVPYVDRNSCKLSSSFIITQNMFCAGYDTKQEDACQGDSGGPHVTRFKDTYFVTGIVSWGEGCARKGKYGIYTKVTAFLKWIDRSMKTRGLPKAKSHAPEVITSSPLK
Chain of Factor Xa (P00742 41-179 partner): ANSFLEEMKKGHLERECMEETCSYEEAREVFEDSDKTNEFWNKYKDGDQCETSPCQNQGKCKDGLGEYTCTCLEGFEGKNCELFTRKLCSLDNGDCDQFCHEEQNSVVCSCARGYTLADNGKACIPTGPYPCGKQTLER
Procedure: as §1

IC50 [2] [nM]	Ratio: Thrombin/FXIa [3]	Ratio: FXa/FXIa [4]	Compound	Ratio: Trypsin/FXIa [1]
< 10	G (“G” indicates 1-100)	H (“H” indicates 101-1000)	CN(C(=O)[C@@H]1[C@@H](Cc2ccnc(N)c2)C(=O)N1C(=O)NC(c1cccc(Cl)c1)C(F)(F)F)c1ccn(C)n1 (stereo in doubt) [Compound 1-38, (2S,3R)-3-((2-aminopyridin-4-yl)methyl)-N2-(1-methyl-1H-pyrazol-3-yl)-N1-((R)-1-(3-chlorophenyl)-2,2,2-trifluoroethyl)-N2-methyl-4-oxoazetidine-1,2-dicarboxamide]	G (“G” indicates 1-100)
< 10	H (“H” indicates 101-1000)	I (“I” indicates > 500)	CN(C(=O)[C@@H]1[C@@H](Cc2ccnc(N)c2)C(=O)N1C(=O)NC(C1CCCCC1)C(F)(F)F)c1nccn1C (stereo in doubt) [Compound 1-56, (2S,3R)-3-((2-aminopyridin-4-yl)methyl)-N2-(1-methyl-1H-imidazol-2-yl)-N1-((R)-1-cyclohexyl-2,2,2-trifluoroethyl)-N2-methyl-4-oxoazetidine-1,2-dicarboxamide]	G (“G” indicates 1-100)
< 10	H (“H” indicates 101-1000)	H (“H” indicates 101-1000)	CC[C@@H](NC(=O)N1C(=O)[C@H](Cc2ccnc(N)c2)[C@H]1C(=O)N(C)c1cncs1)c1ccccc1 [Compound 1-12, (2S,3R)-3-((2-aminopyridin-4-yl)methyl)-N2-(5-thiazolyl)-N1-((R)-1-phenylpropyl)-N2-methyl-4-oxoazetidine-1,2-dicarboxamide]	G (“G” indicates 1-100)
< 10	G (“G” indicates 1-100)	H (“H” indicates 101-1000)	CCc1cccc([C@@H](CC)NC(=O)N2C(=O)[C@H](Cc3ccnc(N)c3)[C@H]2C(=O)N(C)c2cnn(C)c2)c1 [Compound 1-16, (2S,3R)-3-((2-aminopyridin-4-yl)methyl)-N2-(1-methyl-1H-pyrazol-4-yl)-N1-((R)-1-(3-ethylphenyl)propyl)-N2-methyl-4-oxoazetidine-1,2-dicarboxamide]	G (“G” indicates 1-100)
< 10	G (“G” indicates 1-100)	H (“H” indicates 101-1000)	CC[C@@H](NC(=O)N1C(=O)[C@H](Cc2ccnc(N)c2)[C@H]1C(=O)N(C)c1cnsc1)c1ccccc1 [Compound 1-19, (2S,3R)-3-((2-aminopyridin-4-yl)methyl)-N2-(4-isothiazolyl)-N1-((R)-1-phenylpropyl)-N2-methyl-4-oxoazetidine-1,2-dicarboxamide]	G (“G” indicates 1-100)
< 10	G (“G” indicates 1-100)	H (“H” indicates 101-1000)	CC[C@@H](NC(=O)N1C(=O)[C@H](Cc2ccnc(N)c2)[C@H]1C(=O)N(C)c1cn(C)cn1)c1cccc(Cl)c1 [Compound 1-25, (2S,3R)-3-((2-aminopyridin-4-yl)methyl)-N2-(1-methyl-1H-imidazol-4-yl)-N1-((R)-1-(3-chlorophenyl)propyl)-N2-methyl-4-oxoazetidine-1,2-dicarboxamide]	G (“G” indicates 1-100)
10 to 100	G (“G” indicates 1-100)	H (“H” indicates 101-1000)	CN(C(=O)[C@@H]1[C@@H](Cc2ccnc(N)c2)C(=O)N1C(=O)NCc1cccc(Cl)c1)c1ccn(C)n1 [Compound 1-26, (2S,3R)-3-((2-aminopyridin-4-yl)methyl)-N2-(1-methyl-1H-pyrazol-3-yl)-N1-((3-chlorophenyl)methyl)-N2-methyl-4-oxoazetidine-1,2-dicarboxamide]	G (“G” indicates 1-100)
< 10	H (“H” indicates 101-1000)	G (“G” indicates 1-100)	CC[C@@H](NC(=O)N1C(=O)[C@H](Cc2ccnc(N)c2)[C@H]1C(=O)N(C)c1cccs1)c1cccc(Cl)c1 [Compound 1-28, (2S,3R)-3-((2-aminopyridin-4-yl)methyl)-N2-(thiophen-2-yl)-N1-((R)-1-(3-chlorophenyl)propyl)-N2-methyl-4-oxoazetidine-1,2-dicarboxamide]	G (“G” indicates 1-100)
10 to 100	G (“G” indicates 1-100)	H (“H” indicates 101-1000)	CN(C(=O)[C@@H]1[C@@H](Cc2ccnc(N)c2)C(=O)N1C(=O)N[C@@H](c1ccccc1)C(F)(F)F)c1ccn(C)n1 [Compound 1-31, (2S,3R)-3-((2-aminopyridin-4-yl)methyl)-N2-(1-methyl-1H-pyrazol-3-yl)-N1-((S)-1-phenyl-2,2,2-trifluoroethyl)-N2-methyl-4-oxoazetidine-1,2-dicarboxamide]	G (“G” indicates 1-100)
10 to 100	H (“H” indicates 101-1000)	H (“H” indicates 101-1000)	CC[C@@H](NC(=O)N1C(=O)[C@H](Cc2ccnc(NC)c2)[C@H]1C(=O)N(C)c1ccn(C)n1)c1cccc(Cl)c1 [Compound 1-37, (2S,3R)-3-((2-methylaminopyridin-4-yl)methyl)-N2-(1-methyl-1H-pyrazol-3-yl)-N1-((R)-1-(3-chlorophenyl)propyl)-N2-methyl-4-oxoazetidine-1,2-dicarboxamide]	G (“G” indicates 1-100)
< 10			CC[C@@H](NC(=O)N1C(=O)[C@H](Cc2ccnc(N)c2)[C@H]1C(=O)N(C)c1nccn1C)c1ccc(C)c(C)c1F [Compound 1-218, (2S,3R)-3-((2-aminopyridin-4-yl)methyl)-N2-(1-methyl-1H-imidazol-2-yl)-N1-((R)-1-(2-fluoro-3,4-dimethylphenyl)propyl)-N2-methyl-4-oxoazetidine-1,2-dicarboxamide]	
< 10			CC[C@@H](NC(=O)N1C(=O)[C@H](Cc2ccnc(N)c2)[C@H]1C(=O)N(C)c1ccnn1C)c1cc(F)ccc1C [Compound 1-219, (2S,3R)-3-((2-aminopyridin-4-yl)methyl)-N2-(1-methyl-1H-pyrazol-5-yl)-N1-((R)-1-(5-fluoro-2-methylphenyl)propyl)-N2-methyl-4-oxoazetidine-1,2-dicarboxamide]	
10 to 100			CC[C@H](NC(=O)N1C(=O)[C@H](Cc2ccnc(N)c2)[C@H]1C(=O)N(C)c1nccn1C)c1cccc(F)c1 [Compound 1-220, (2S,3R)-3-((2-aminopyridin-4-yl)methyl)-N2-(1-methyl-1H-imidazol-2-yl)-N1-((S)-1-(3-fluorophenyl)propyl)-N2-methyl-4-oxoazetidine-1,2-dicarboxamide]	
100 to 1000			CC[C@H](NC(=O)N1C(=O)[C@H](Cc2ccnc(N)c2)[C@H]1C(=O)N(C)c1nccn1C)c1cc(F)ccc1F [Compound 1-221, (2S,3R)-3-((2-aminopyridin-4-yl)methyl)-N2-(1-methyl-1H-imidazol-2-yl)-N1-((S)-1-(2,5-difuorophenyl)propyl)-N2-methyl-4-oxoazetidine-1,2-dicarboxamide]	
10 to 100			(2S,3R)-3-((2-aminopyridin-4-yl)methyl)-N2-(1-methyl-1H-imidazol-2-yl)-N1-((R)-1-(3-chlorophenyl)propyl)-N1-methyl-N2-methyl-4-oxoazetidine-1,2-dicarboxamide [Compound 1-65]	
